Key:
Glucocorticoid receptor [1] = target: T1, Glucocorticoid receptor (Homo sapiens, UniProt P04150); settings: hela s3
T1 sequence (P04150 whole entry): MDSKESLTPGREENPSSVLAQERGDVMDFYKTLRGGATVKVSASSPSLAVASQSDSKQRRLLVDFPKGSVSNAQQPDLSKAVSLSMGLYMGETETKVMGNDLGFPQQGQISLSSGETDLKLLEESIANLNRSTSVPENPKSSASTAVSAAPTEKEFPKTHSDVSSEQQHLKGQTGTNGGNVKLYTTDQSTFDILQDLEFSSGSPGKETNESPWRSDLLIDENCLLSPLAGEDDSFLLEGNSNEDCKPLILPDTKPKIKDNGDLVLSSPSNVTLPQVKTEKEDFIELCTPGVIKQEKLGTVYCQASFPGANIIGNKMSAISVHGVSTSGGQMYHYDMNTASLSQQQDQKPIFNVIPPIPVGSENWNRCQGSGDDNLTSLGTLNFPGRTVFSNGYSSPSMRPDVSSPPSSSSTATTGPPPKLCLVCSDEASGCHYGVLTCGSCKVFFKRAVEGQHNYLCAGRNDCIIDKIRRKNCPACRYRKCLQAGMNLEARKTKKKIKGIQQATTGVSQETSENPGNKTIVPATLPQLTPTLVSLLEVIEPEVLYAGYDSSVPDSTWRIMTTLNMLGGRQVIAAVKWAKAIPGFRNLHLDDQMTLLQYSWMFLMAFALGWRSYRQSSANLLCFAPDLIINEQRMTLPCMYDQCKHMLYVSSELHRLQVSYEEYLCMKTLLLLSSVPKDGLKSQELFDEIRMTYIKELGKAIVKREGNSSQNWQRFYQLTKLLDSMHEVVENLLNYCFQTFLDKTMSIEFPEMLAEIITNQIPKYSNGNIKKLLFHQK

Androgen receptor [2] = target: T2, Androgen receptor (Rattus norvegicus, UniProt P15207)
T2 sequence (P15207 whole entry): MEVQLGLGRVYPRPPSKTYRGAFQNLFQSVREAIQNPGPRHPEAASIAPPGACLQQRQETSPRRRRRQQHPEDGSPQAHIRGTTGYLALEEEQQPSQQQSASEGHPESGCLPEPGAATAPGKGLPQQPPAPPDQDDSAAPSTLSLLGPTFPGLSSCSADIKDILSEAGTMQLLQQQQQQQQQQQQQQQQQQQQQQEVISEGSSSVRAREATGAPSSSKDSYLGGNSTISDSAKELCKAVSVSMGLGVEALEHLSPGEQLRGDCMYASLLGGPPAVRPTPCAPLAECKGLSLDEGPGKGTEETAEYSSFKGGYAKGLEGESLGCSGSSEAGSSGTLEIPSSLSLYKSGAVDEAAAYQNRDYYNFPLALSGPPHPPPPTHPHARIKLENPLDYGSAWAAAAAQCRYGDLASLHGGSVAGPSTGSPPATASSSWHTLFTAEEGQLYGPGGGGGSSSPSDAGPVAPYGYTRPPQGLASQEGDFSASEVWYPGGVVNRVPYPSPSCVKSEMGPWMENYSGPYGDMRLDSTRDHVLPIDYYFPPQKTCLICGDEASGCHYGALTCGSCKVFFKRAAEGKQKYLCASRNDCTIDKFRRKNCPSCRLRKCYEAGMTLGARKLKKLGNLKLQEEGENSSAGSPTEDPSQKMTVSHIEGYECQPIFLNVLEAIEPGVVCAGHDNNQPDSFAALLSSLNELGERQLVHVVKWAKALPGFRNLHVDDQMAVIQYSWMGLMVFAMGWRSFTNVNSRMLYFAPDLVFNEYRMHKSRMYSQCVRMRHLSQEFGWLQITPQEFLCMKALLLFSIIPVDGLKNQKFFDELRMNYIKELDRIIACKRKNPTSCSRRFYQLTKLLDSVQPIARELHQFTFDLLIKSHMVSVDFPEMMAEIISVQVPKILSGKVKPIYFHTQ

Glucocorticoid receptor [3] = target: T1, Glucocorticoid receptor; test: biochemical
Cytochrome P450 2D6 = Cytochrome P450 2D6 (Homo sapiens, UniProt P10635)
Cytochrome P450 2D6, sequence (P10635 whole entry): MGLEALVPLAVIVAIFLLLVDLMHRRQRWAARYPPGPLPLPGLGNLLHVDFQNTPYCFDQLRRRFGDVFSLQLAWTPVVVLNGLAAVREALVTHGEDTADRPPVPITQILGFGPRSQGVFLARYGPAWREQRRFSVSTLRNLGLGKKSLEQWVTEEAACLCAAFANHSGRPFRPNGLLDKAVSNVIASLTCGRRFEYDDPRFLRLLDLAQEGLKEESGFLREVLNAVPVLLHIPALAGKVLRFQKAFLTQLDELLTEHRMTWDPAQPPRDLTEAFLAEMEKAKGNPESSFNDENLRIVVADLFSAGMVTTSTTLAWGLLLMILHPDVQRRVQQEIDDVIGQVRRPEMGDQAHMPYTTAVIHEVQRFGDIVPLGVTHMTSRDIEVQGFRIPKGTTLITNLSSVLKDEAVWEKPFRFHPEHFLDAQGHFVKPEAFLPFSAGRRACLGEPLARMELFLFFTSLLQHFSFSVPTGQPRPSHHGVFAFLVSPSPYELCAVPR

Androgen receptor [4] = target: T2, Androgen receptor; remark: listed apart in the source
Further: in other assays of this panel Not Active means under 50% inhibition at 10 µM.

Molecule | IC50 (Glucocorticoid receptor [1]) | other results
COc1cccc2c1C(=O)c1c(O)c3c(c(O)c1C2=O)C[C@@](O)(C(=O)CO)C[C@@H]3O[C@H]1C[C@H](N)[C@@H](O)[C@H](C)O1 [EPIRUBICIN] | Not Active | 
C[C@]12CC[C@@H]3c4ccc(OC(=O)c5ccccc5)cc4CC[C@H]3[C@@H]1CC[C@@H]2O [ESTRADIOL BENZOATE] |  | IC50 (Androgen receptor [2]): 10 nM; Ki (Androgen receptor [2]): 6.98 nM; IC50 (Glucocorticoid receptor [3]): 5070 nM; Ki (Glucocorticoid receptor [3]): 2310 nM
CC1(C)O[C@@H]2C[C@H]3[C@@H]4C[C@H](F)C5=CC(=O)C=C[C@]5(C)[C@H]4[C@@H](O)C[C@]3(C)[C@]2(C(=O)CO)O1 [FLUNISOLIDE] |  | IC50 (Glucocorticoid receptor [3]): 5.33 nM; Ki (Glucocorticoid receptor [3]): 2.42 nM
CC1(C)O[C@@H]2C[C@H]3[C@@H]4C[C@H](F)C5=CC(=O)C=C[C@]5(C)[C@@]4(F)[C@@H](O)C[C@]3(C)[C@]2(C(=O)CO)O1 [FLUOCINOLONE ACETONIDE] |  | IC50 (Glucocorticoid receptor [3]): 3.13 nM; Ki (Glucocorticoid receptor [3]): 1.42 nM
CC1(C)O[C@@H]2C[C@H]3[C@@H]4C[C@H](F)C5=CC(=O)CC[C@]5(C)[C@H]4[C@@H](O)C[C@]3(C)[C@]2(C(=O)CO)O1 [FLURANDRENOLIDE] |  | IC50 (Glucocorticoid receptor [3]): 4.45 nM; Ki (Glucocorticoid receptor [3]): 2.02 nM
CN(C)c1ccc(C(=C2C=CC(=[N+](C)C)C=C2)c2ccc(N(C)C)cc2)cc1.[Cl-] [GENTIAN VIOLET] | Not Active | IC50 (Androgen receptor [2]): 5570 nM; Ki (Androgen receptor [2]): 3710 nM; IC50 (Cytochrome P450 2D6): 824 nM
NC(=O)NO [HYDROXYUREA] | Not Active | 
CC(C)Cc1ccc(C(C)C(=O)O)cc1 (configuration not stated) [IBUPROFEN] | Not Active | 
COc1ccc2c(c1)c(CC(=O)O)c(C)n2C(=O)c1ccc(Cl)cc1 [INDOMETHACIN] | Not Active | IC50 (Androgen receptor [4]): Not Active
CCc1c2c(nc3ccc(OC(=O)N4CCC(N5CCCCC5)CC4)cc13)-c1cc3c(c(=O)n1C2)COC(=O)[C@]3(O)CC [IRINOTECAN] | Not Active | 
Nc1ccn([C@@H]2CS[C@H](CO)O2)c(=O)n1 [LAMIVUDINE] | Not Active | 
O=S(=O)([O-])CCS.[Na+] [MESNA] | Not Active | 
C#C[C@]1(O)CC[C@H]2[C@@H]3CCc4cc(OC)ccc4[C@H]3CC[C@@]21C [MESTRANOL] | Not Active | 
CC(C)(C(=O)c1cccnc1)c1cccnc1 [METYRAPONE] | Not Active | 
Oc1ccc(OCc2ccccc2)cc1 [MONOBENZONE] | Not Active | IC50 (Androgen receptor [4]): Not Active
CC(C)(Oc1ccc(C2CCCc3ccccc32)cc1)C(=O)O (configuration not stated) [NAFENOPIN] | Not Active | IC50 (Androgen receptor [4]): Not Active
CC(C)[C@H]1CC[C@H](C(=O)N[C@H](Cc2ccccc2)C(=O)O)CC1 [NATEGLINIDE] | Not Active | 
COC(=O)C1=C(C)NC(C)=C(C(=O)OCC(C)C)C1c1ccccc1[N+](=O)[O-] (configuration not stated) [NISOLDIPINE] | Not Active | 
Cc1nccn1CC1CCc2c(c3ccccc3n2C)C1=O (configuration not stated) [ONDANSETRON] | Not Active | 
CCn1cc(C(=O)O)c(=O)c2cc(F)c(N3CCN(C)CC3)cc21 [PEFLOXACIN] | Not Active | 
O=C(C1CCCCC1)N1CC(=O)N2CCc3ccccc3C2C1 (configuration not stated) [PRAZIQUANTEL] | Not Active | 
CCCN(CCC)C(=O)C(CCC(=O)O)NC(=O)c1ccccc1 (configuration not stated) [PROGLUMIDE] | Not Active | 
NC(=O)c1cnccn1 [PYRAZINAMIDE] | Not Active | 
OC(CCN1CCCCC1)(c1ccccc1)C1CCCCC1 (configuration not stated) [TRIHEXYPHENIDYL] |  | IC50 (Cytochrome P450 2D6): 2450 nM
CCCC(CCC)C(=O)O [VALPROIC ACID] | Not Active | 
CCC1=C[C@@H]2CN(C1)Cc1c([nH]c3ccccc13)[C@@](C(=O)OC)(c1cc3c(cc1OC)N(C)[C@H]1[C@@](O)(C(=O)OC)[C@H](OC(C)=O)[C@]4(CC)C=CCN5CC[C@]31[C@@H]54)C2 [VINORELBINE] | Not Active | 
CADMIUM DICHLORIDE | Not Active | IC50 (Androgen receptor [4]): Not Active; Ki (Androgen receptor [4]): Not Active; Ki (Glucocorticoid receptor [1]): Not Active

From ChEMBL document CHEMBL1909046, “DrugMatrix in vitro pharmacology data”
